Laboratory results published in patent publication US10537535B2, “Histone deacetylase inhibitors” (The Regents of the University of California, priority 2015, dated 2020).

How the values were obtained:
human HDAC3 = biological target: T1, human HDAC3 (Homo sapiens, UniProt O15379); test: Fluorometric HDAC activity assay, purified human HDAC3; assay type: biochemical; details: purified human HDAC3, n=4-5
T1 construct: purchased BPS Bioscience 50073
Procedure: (§1) In order to directly test whether diacetyl acts as an inhibitor of HDACs, in vitro acetylation assays was performed with purified human HDACs. In this example, β-hydroxybutyrate (a naturally-occurring HDAC inhibitor secreted by the liver, targeting zinc-dependent HDACs) was used for comparison. HDAC activity of class I HDACs (HDAC1, 2, 3 and 8) was measured with the fluorometric HDAC Activity Assay kit: HDAC1 (10011563, Cayman Chemical, Ann Arbor, Mich.), HDAC2, HDAC 3 and HDAC 8 (50062, 50073 and 50068, BPS Bioscience, San Diego, Calif.), according to the manufacturer's instructions.

human HDAC2 = biological target: T2, human HDAC2 (Homo sapiens, UniProt Q92769); test: Fluorometric HDAC activity assay, purified human HDAC2; assay type: biochemical; details: purified human HDAC2, n=4-5
T2 construct: purchased BPS Bioscience 50062
T2 sequence (Q92769 whole entry): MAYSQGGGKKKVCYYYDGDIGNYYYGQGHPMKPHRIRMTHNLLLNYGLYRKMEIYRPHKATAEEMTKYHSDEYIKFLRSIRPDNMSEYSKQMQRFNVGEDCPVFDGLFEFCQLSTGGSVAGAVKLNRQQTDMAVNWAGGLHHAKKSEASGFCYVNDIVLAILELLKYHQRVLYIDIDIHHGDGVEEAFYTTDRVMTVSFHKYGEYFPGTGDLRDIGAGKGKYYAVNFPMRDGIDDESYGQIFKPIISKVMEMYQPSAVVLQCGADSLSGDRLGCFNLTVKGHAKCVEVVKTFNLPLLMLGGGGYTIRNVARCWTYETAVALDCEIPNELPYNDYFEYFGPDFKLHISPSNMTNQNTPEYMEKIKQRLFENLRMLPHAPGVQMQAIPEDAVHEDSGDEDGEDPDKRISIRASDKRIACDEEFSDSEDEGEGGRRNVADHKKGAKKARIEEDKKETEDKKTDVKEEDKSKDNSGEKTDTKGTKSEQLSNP
Procedure: as §1

[1] = system: gene expression in the antenna of Drosophila melanogaster; test: RNA-seq transcriptome analysis of Drosophila antennae after exposure or feeding; assay type: in vivo
Description: In order to examine the physiological effects of long-term exposure to an odorant, flies were maintained in vials with circulating volatiles from headspace of a low concentration (1% in paraffin oil) of the odorant diacetyl, which acts on a number of different receptor pathways in Drosophila. In a similar manner to previous odor-exposure studies, flies were exposed to diacetyl for 5 days and performed an RNA-seq analysis of the antennae, which are known odor-detecting organs. The transcriptome was compared with a control group of age-matched flies that were exposed to the headspace of the solvent paraffin oil (PO, FIG. 3A).
Flies were exposed to diacetyl (2,3-Butanedione, B85307, Sigma-Aldrich, St. Louis, Mo.) by placing them in vials in a cylindrical closed container (112 mm diameter×151 mm height) along with an odor-containing glass vial. The odorant was dissolved in 10 mL paraffin oil at 1% dilution. For a given exposure protocol, two groups of flies were prepared: those exposed to 1% diacetyl headspace and those exposed to paraffin oil headspace alone (control flies). Adult male flies aged 1 d were transferred to fly vials containing fresh medium, and put into the container with the odor vial. At the end of the fifth day of exposure, flies were collected, and their antennae were dissected for RNA extraction. All treatments and experiments were performed at room temperature. For the recovery experiment, flies were transferred again to the container containing a glass vial of paraffin oil after 5 days of diacetyl exposure. At the end of the fifth day of recovery, flies were collected, and their antennae were dissected for RNA extraction.
Sodium butyrate (B5887, Sigma-Aldrich) or valproic acid (P4543, Sigma-Aldrich) were dissolved in normal fly food medium at the final concentration of 10 mM. Three groups of flies were prepared: those treated with one of the HDAC inhibitors and those without HDAC inhibitor treatment (control flies). Adult flies aged 1 d were transferred to fly vials containing medium with or without a HDAC inhibitor. At the end of the fifth day of treatment, flies were collected, and their antennae were dissected for RNA extraction. All treatments and experiments were performed at room temperature.
The second and third antennal segments from 40-60 male flies after treatment were carefully hand-dissected from the head, collected in 1.5 ml microfuge tubes kept cold in liquid nitrogen. Antennae were mechanically crushed with disposable RNAse-free plastic pestles, and total RNA was isolated using a Trizol-based protocol. cDNA libraries were prepared from total RNA (300-1000 ng/sample) using the Illumina TruSeq RNA Library Preparation Kit (Illumina Catalog #RS-122-2001). Samples were submitted to the UCR IIGB sequencing core for high-throughput sequencing using the Illumina HiSeq2500 platform. Raw reads were aligned to the Drosophila melanogaster reference genome (dmel-all-chromosome-r5.48.fasta) with Tophat2, and a count table of reads overlapping with exonic regions of genes was generated by the UCR bioinformatics core. The numbers of biological replicates are: 2, day 5 paraffin oil; 1, day 5 diacetyl; 2, day 5 mock; 2, day 5 sodium butyrate; 2, day 5 valproic acid; 2, day 10 paraffin oil recovery; 2, day 10 diacetyl recovery.
The read count table for all the genes were then imported into R and a statistical analysis of differential gene expression using the DESeq package (1.22.0) was performed. […] The gene list analysis was performed using the GO Term Mapper (http://go.princeton.edu/) with Generic GO slim datasets, and the Statistical overrepresentation test was performed using the PANTHER classification (http://www.pantherdb.org/) system with GO complete datasets.
This example investigates the overlap among genes modulated by diacetyl as compared to sodium butyrate and valproic acid, which are known HDAC inhibitors. […]

human HDAC8 = biological target: T3, human HDAC8 (Homo sapiens, UniProt Q9BY41); test: Fluorometric HDAC activity assay, purified human HDAC8; assay type: biochemical; details: purified human HDAC8, n=4-5
T3 construct: purchased BPS Bioscience 50068
T3 sequence (Q9BY41 1-377): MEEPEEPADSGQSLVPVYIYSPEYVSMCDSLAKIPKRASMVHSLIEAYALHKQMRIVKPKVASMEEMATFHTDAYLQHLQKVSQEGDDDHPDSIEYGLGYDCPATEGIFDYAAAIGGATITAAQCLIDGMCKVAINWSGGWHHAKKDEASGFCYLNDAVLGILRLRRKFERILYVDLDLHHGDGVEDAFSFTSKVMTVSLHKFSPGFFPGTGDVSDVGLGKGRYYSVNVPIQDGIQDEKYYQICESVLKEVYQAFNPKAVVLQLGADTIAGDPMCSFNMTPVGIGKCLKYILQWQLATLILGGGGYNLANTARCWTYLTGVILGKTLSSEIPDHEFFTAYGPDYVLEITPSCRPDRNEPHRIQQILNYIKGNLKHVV
Procedure: as §1

Gr63a = test: Whole mount RNA in situ of adult Drosophila antenna Gr63a; assay type: in vivo; details: 5 days; odor 1 1% on filter paper, sodium butyrate 10 mM fed; vs untreated or mock
Procedure: For five days, Drosophila were exposed to 1% diacetyl (odor 1) on filter paper; fed known HDAC inhibitor sodium butyrate (Na-but; 10 mM); or fed known HDAC inhibitor valproic acid (10 mM).

[2] = 5 days, diacetyl 1% headspace, SB/VA 10 mM in food, vs control
[3] = of 125 up-regulated genes, 5 days exposure then 5 days recovery
[4] = out of 125 diacetyl-induced genes

T1 sequence (O15379 whole entry): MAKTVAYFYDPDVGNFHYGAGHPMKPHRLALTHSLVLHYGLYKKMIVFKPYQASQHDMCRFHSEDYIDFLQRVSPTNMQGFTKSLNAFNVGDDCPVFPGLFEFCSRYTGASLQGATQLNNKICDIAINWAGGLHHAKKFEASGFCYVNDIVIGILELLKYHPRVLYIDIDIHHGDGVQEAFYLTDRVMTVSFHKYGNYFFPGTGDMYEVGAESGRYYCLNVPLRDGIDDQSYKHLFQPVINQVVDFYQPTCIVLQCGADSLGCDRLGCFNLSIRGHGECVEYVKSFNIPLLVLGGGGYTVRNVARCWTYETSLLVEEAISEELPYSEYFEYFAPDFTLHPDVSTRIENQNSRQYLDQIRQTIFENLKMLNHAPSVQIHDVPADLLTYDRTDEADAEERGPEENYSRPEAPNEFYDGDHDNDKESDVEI
T1 sequence (Q9Y618 395-489 partner limits assumed): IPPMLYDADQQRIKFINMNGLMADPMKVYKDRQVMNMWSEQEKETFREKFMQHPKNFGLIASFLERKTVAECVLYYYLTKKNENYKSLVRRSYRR

- IC50 (human HDAC3): 7.72 mM
- IC50 (human HDAC2): 11.2 mM
- IC50 (human HDAC8): 11.4 mM
Structure (SMILES): CC(=O)C(C)=O [diacetyl, 2,3-Butanedione]
- number of differentially-expressed genes in antennal transcriptome [1, 2]: 202 genes
- number of genes down-regulated >2-fold [1, 2]: 77 genes
- number of genes up-regulated >2-fold [1, 2]: 125 genes
- genes continuing to show increased mRNA abundance after odor removal [1, 3]: 11 genes
- genes showing little change after recovery [1, 3]: 38 genes
- transcripts showing a reduction with diacetyl recovery [1, 3]: 27 genes
- diacetyl down-regulated genes overlapping with those down-regulated in either SB- or VA-treated groups ([1]; out of 77 down-regulated genes): About 28 genes
- diacetyl-induced genes overlapping with SB-induced genes [1, 4]: 51 genes
- diacetyl-induced genes overlapping with VA-induced genes [1, 4]: 40 genes
- Gr63a expression in antenna (RNA in situ) (Gr63a): over-expression
